Assay results from publication PMC8880385 (Pharmaceuticals, 2022).
Values joined by “and” are separate entries in the source; they are usually repeats but may differ in a detail not shown here. Equal entries are not always repeated. “Also recorded” adds a separate entry of the source.

What was measured:
[1] = system: O. volvulus pre-adult L5; test: O. volvulus pre-adult (Ov L5) motility assay; type: cell-based, Onchocerca volvulus; conditions: for inhibition at 1 µM: Onchocerca volvulus
Protocol: O. volvulus adult male and female worms, which can only be obtained from infected individuals, are not readily accessible for ex vivo studies. Moreover, since there is no small animal model that can maintain infections by O. volvulus, a recently developed in vitro system was used to evaluate the macrofilaricidal effects on pre-adult worms. All compounds except for 04 were tested in this O. volvulus pre-adult/L5 motility and viability assay.
Briefly, Ov L3 larvae were cultured to the pre-adult/L5 stage in vitro as described by Voronin et al., 2019 [45]. Once larvae reached the L5 stage (after at least 70 days in culture), 8–10 Ov L5 were moved to new transwell inserts in a 24-well plate containing 0.5 mL Ov L4-CMS media seeded with a 3 × 10^4/well Human Umbilical Vein Endothelial Cells (HUVEC) monolayer. Duplicate wells were treated with 1 and/or 10 µM of compound. Ov L5 were exposed to compounds for 14 days (exchanged 50% of media with fresh compound every two days) and then cultured with new media without compound, exchanging 50% of media every 2–3 days, up to day 36. Control Ov L5 were treated with 0.05% DMSO. Concentrations were chosen based on activity in the B. pahangi female motility assay. Motility was assessed visually and ranked on a 0–100% scale every 2–3 days over the course of the assay. At the end of the motility assay, Ov L5 viability was measured by 3-(4,5-dimethylthiazol-2-yl)-2,5-diphenyltetrazolium bromide (MTT) assay. Ov L5 were incubated with 0.1% MTT in PBS at 37 °C for 1 h then visually inspected for blue coloration indicating MTT reduction. Worms were considered dead if <50% of the worm was stained blue, and worms were considered alive if >50% of the worm was stained blue.

[2] = system: O. ochengi adult males; test: O. ochengi adult male motility assay; type: cell-based; conditions: Onchocerca ochengi, 120 h; read-out: O. ochengi Adult Males Inhibition of Motility Day 5 IC50
Excerpt: As humans are the only hosts for O. volvulus which are unavailable for screening, drug discovery relies on the surrogate filarial parasites Brugia spp. and cattle Onchocerca spp. Prioritized compounds from the Brugia worm screens were further tested with female and male adult O. ochengi as well as O. ochengi and L. loa mf.
For these assays, O. ochengi adults were extracted from the subcutaneous nodules of infected cow skins purchased from the local slaughterhouse (Douala, Littoral Region, Cameroon) and incubated in 4 mL complete culture media comprised of RPMI-1640 (Sigma-Aldrich), 5% newborn calf serum, 200 units/mL penicillin, 200 μg/mL streptomycin and 2.5 μg/mL amphotericin B (Sigma-Aldrich) in 12-well plates overnight to validate sterility prior to the assays. Four to eight O. ochengi adult masses were treated individually the following day with a serial dilution of each compound, and controls were treated with 1% DMSO. While in culture, the male worms normally egress from the nodules into the surrounding media and thus can be monitored in parallel for motility. The O. ochengi adult masses were incubated at 37 °C with 5% CO2 for the duration of the assay. Male motility within each well was visually scored every day and over 5 days after compound addition, and female viability within the nodules was assessed by MTT after 7 days as previously described. The O. ochengi adult masses containing female worms were individually placed in wells of a 48-well plate with 0.5 mL of 0.5 mg/mL MTT in PBS and incubated at 37 °C for 30 min. Female viability was visually rated by the degree of formazan production (live worms have blue coloration) in the female worm within the treated nodule versus control worm masses. […] Prism 4.0 for Windows was used to calculate IC50s.

[3] = system: Brugia pahangi; test: Brugia pahangi/gerbil model of infection: worm and peritoneal mf counts at necropsy; type: in vivo
Protocol: Male Mongolian gerbils 50–60 g, 5–7 weeks in age (Meriones unguiculatus, Charles River Laboratories International, Inc., Wilmington, MA, USA) were injected intraperitoneally (IP) with 200 third-larval stage B. pahangi and treated a minimum of 3 months later when larvae developed into adult worms.
Animals were given IP doses of 1 mg/kg once a day for 5 days based on in vivo studies by Jones et al., 2009 [14] and gerbil PK analyses. Compounds are light sensitive and were shielded from light during formulation. Animals were necropsied 13 weeks post-first dose, and peritoneal cavities were washed with 100 mL of PBS to collect adult worms and mf that had been released from female worms. Adult worms were separated by sex, counted, and processed for subsequent analyses. Mf from the peritoneal cavities were quantified by mixing peritoneal wash 9:1 (v/v) with 0.04% methylene blue:water and counted using an inverted microscope.
Worm burden, peritoneal mf counts, overnight mf sheds and qPCR data were analyzed using a Kruskal–Wallis test followed by Dunn’s multiple comparison. To determine significant differences in embryograms, a two-way ANOVA was conducted with a Dunnett’s multiple comparisons test, and significance levels were determined based on comparisons with vehicle treated animals. All statistical analyses were determined using Prism 8 version 8.2.0(272).

[4] = system: Brugia pahangi adult females; test: In vitro motility assay with adult female Brugia pahangi (Worminator)
[5] = system: O. ochengi mf; test: O. ochengi microfilariae motility assay; type: cell-based, Onchocerca ochengi
Protocol: (§1) To assess the effects of the compounds on O. ochengi mf, the mf were harvested from infected cow skin and cultured (10–15 mf per well) in 100 µL media in 96-well plates with a confluent feeder layer of monkey kidney epithelial cells (MK2) as previously described. […] All compounds were also counter-screened with L. loa mf collected from infected individuals with approval from the University of Buea (IRB approval # 964-19). Mf were separated from blood cells using a Percoll gradient as previously described and set up for assays (10–15 mf per well).

[6] = system: Loa loa mf; test: Loa loa microfilariae motility counter-screen; type: cell-based
Protocol: as §1

[7] = system: O. volvulus pre-adult L5; test: O. volvulus pre-adult (Ov L5) motility assay; type: cell-based; conditions: Onchocerca volvulus, 504 h; on Day 21; read-out: O. volvulus L5 Inhibition of Motility IC50
[8] = gerbil, 1 mg/kg IP once a day for 5 days, necropsy 13 weeks post-first dose, mean (SEM)
[9] = gerbil, 1 mg/kg IP once a day for 5 days, necropsy 13 weeks post-first dose, mean (SEM), 1 mg/kg

## Cc1cc(/C=C/c2ccc3cc(N(C)C)ccc3[n+]2C)c(C)n1-c1ccccc1 [PVP, pyrvinium pamoate, reference compound]
[1]; 1 µM, 14 days drug then washout
  Ov L5 fate during assay (in words): dead by day 14; also recorded: did not recover
[1]; 336 h, Day 14 @ 1 µM
  inhibition at 1 µM: 100%
[1]; Day 36 @ 1 µM, 14 days drug then washout
  inhibition at 1 µM: > 90%
[2]
  IC50: 110 nM
[3]; gerbil, 1 mg/kg IP
  Total female worms recovered from treated animals: 1
[3]; gerbil, 1 mg/kg IP once a day for 5 days, 13 weeks post-first dose
  Reduction of peritoneal mf numbers compared to control group: ~ 95%
[3]; gerbil, 1 mg/kg IP once a day for 5 days, 13 weeks post-first dose, not statistically significant, 1 mg/kg
  Reduction of adult worm numbers (worm burden) compared to control group: ~ 95% and 95%
[3]; [8]
  Female worms per animal: 0.1 (0.1)
  Male worms per animal: 0.7 (0.4)
[3]; [9]
  Adult worms per animal: 0.9 and 0.9 (0.5)
  Mf per animal (peritoneal cavity): 10.4 × 10^3 and 10,429
[3]; n = 7 animals, vehicle total 148 worms (n = 8)
  Total worms recovered from treated animals: 6 worms
[4]; 1 µM, Day 3, 1 µM
  Brugia Adult Females Inhibition of Motility Day 3 @ 1 µM: 82%
[4]; Brugia pahangi, 72 h, read-out: Brugia Adult Females Inhibition of Motility Day 3 @ 1 µM, 1 µM, Day 3
  inhibition at 1 µM: > 70%
[4]; Brugia pahangi, 72 h, read-out: Brugia Adult Females Inhibition of Motility Day 3 IC50
  IC50: 0.3 nM
[4]; Day 3
  Brugia Adult Females Inhibition of Motility Day 3 IC50: sub-micromolar range
[5]; 10 µM
  O. ochengi Mf Inhibition of Motility Day 5 @ 10 µM: completely inhibited
[5]; Onchocerca ochengi, 120 h, 10 µM, Day 5
  inhibition at 10 µM: 100%
[5]; Onchocerca ochengi, 120 h, Day 5
  IC50: 300 nM
[6]
  Loa loa Mf Inhibition of Motility Day 5 @ 10 µM: completely inhibited
[6]; Loa loa, 120 h, Day 5
  inhibition at 10 µM: 100%
[7]
  IC50: < 300 nM
